Results from patent publication US8557845B2, “Substituted pyrrolo-pyrazole derivatives as kinase inhibitors” (Nerviano Medical Sciences S.R.L., priority 2002, dated 2013).

molecular target: Cdk2/Cyclin A (Homo sapiens, UniProt P24941); assay: Inhibition assay of Cdk2/Cyclin A activity (SPA, IC50); type: biochemical; details: tested against Cdk2/Cyclin A
Procedure: The inhibiting activity of putative Cdk/Cyclin inhibitors and the potency of selected compounds was determined through a method of assay based on the use of the SPA technology (Amersham Pharmacia Biotech).
The assay consists of the transfer of radioactivity labelled phosphate moiety by the kinase to a biotinylated substrate. The resulting 33P-labelled biotinylated product is allowed to bind to streptavidin-coated SPA beads (biotin capacity 130 pmol/mg), and light emitted was measured in a scintillation counter.
Inhibition Assay of Cdk2/Cyclin A Activity
4 μM in house biotinylated histone H1 (Sigma #H-5505) substrate, 10 μM ATP (0.1 microCi P^33γ-ATP), 4.2 ng Cdk2/Cyclin A complex, inhibitor in a final volume of 30 μl buffer (TRIS HCl 10 mM pH 7.5, MgCl2 10 mM, DTT 7.5 mM+0.2 mg/ml BSA) were added to each well of a 96 U bottom. After 30 min at r.t. incubation, reaction was stopped by 100 μl PBS+32 mM EDTA+0.1% Triton X-100+500 μM ATP, containing 1 mg SPA beads. Then a volume of 110 μl is transferred to Optiplate.
After 20 min. incubation for substrate capture, 100 μl 5M CsCl were added to allow statification of beads to the top of the plate and let stand 4 hours before radioactivity counting in the Top-Count instrument.
inhibitors were tested at different concentrations ranging from 0.0015 to 10 μM. Experimental data were analyzed by the computer program GraphPad Prizm using the four parameter logistic equation: y=bottom+(top−bottom)/(1+10^((log IC50−x)*slope)) where x is the logarithm of the inhibitor concentration, y is the response; y starts at bottom and goes to top with a sigmoid shape.

| SMILES | IC50 [nM] |
| --- | --- |
| CC(C)(C)C(=O)N1Cc2c(NC(=O)c3ccc(F)cc3)n[nH]c2C1(C)C [Compound 1, N-[5-(2,2-dimethylpropanoyl)-6,6-dimethyl-1,4,5,6-tetrahydropyrrolo[3,4-c]pyrazol-3-yl]-4-fluorobenzamide] | 30 |
| CC(C)(C)C(=O)N1Cc2c(NC(=O)c3ccc(F)cc3)n[nH]c2C12CC2 [Compound 2, N-[5-(2,2-dimethylpropanoyl)-1,4,5,6-tetrahydropyrrolo[3,4-c]pyrazol-6-spirocyclopropan-3-yl]-4-fluorobenzamide] | 25 |
| CC(=O)N1Cc2c(NC(=O)c3cccc(Br)c3)n[nH]c2C1(C)C [Reference Compound, N-[5-acetyl-6,6-dimethyl-4,6-dihydropyrrolo[3,4-c]pyrazol-3-yl]-(3-bromo)benzamide, reference compound] | 1700 |
